Patent EP0908457B1, “3-(1,2-benzisothiazol- and isoxazol-5-Y1)-2,4(1H,3H)-pyrimidinedione or thione and 3-(1,2-benzisothiazol- and isoxazol-5-y1)-4(3H)-pyrimidinone or thione herbicidal agents” (BASF AKTIENGESELLSCHAFT, priority 1997, dated 1999)

How the values were obtained:
[1] = tested on: Echinochloa oryzoides (Ard.) Fritsch.; experiment: Preemergence weed control under flooded paddy conditions, ECHORC (Watergrass (Calif.)); assay type: in vivo; conditions: preemergence, flooded paddy, rated three to four weeks after treatment
[2] = tested on: Cyperus iria; experiment: Preemergence weed control under flooded paddy conditions, CYPIR (Rice Flatsedge); assay type: in vivo; conditions: preemergence, flooded paddy, rated three to four weeks after treatment
[3] = tested on: Cyperus serotinus, Rottb.; experiment: Preemergence weed control under flooded paddy conditions, CYPSE (Flatsedge); assay type: in vivo; conditions: preemergence, rated three to four weeks after treatment
[4] = tested on: Monochoria vaginalis, Presl.; experiment: Preemergence weed control under flooded paddy conditions, MOOVA (Monochoria); assay type: in vivo; conditions: preemergence, flooded paddy, rated three to four weeks after treatment
[5] = tested on: Sagittaria pygmaea, L.; experiment: Preemergence weed control under flooded paddy conditions, SAGPY (Arrowhead (Pygmaea)); assay type: in vivo; conditions: preemergence, flooded paddy, rated three to four weeks after treatment
[6] = tested on: Oryza sativa, (L.) Tebonnet; experiment: Rice tolerance to post-transplant applications under flooded paddy conditions (Example 187), ORYSAT (Rice, Tebonnet); conditions: rated three to four weeks after treatment
Also: meaning of each grade not given here.

SMILES | herbicidal effect rating, ECHORC ([1]; Rate 0.0320 kg/ha) | herbicidal effect rating, ECHORC ([1]; Rate 0.0620 kg/ha) | herbicidal effect rating, ECHORC ([1]; Rate 0.1250 kg/ha) | herbicidal effect rating, ECHORC ([1]; Rate 0.2500 kg/ha) | herbicidal effect rating, CYPIR ([2]; Rate 0.0320 kg/ha) | herbicidal effect rating, CYPIR ([2]; Rate 0.0620 kg/ha) | herbicidal effect rating, CYPIR ([2]; Rate 0.1250 kg/ha) | herbicidal effect rating, CYPIR ([2]; Rate 0.2500 kg/ha) | herbicidal effect rating, CYPSE ([3]; Rate 0.0320 kg/ha) | herbicidal effect rating, CYPSE ([3]; Rate 0.0620 kg/ha) | herbicidal effect rating, CYPSE ([3]; Rate 0.1250 kg/ha) | herbicidal effect rating, CYPSE ([3]; Rate 0.2500 kg/ha) | herbicidal effect rating, MOOVA ([4]; Rate 0.0320 kg/ha) | herbicidal effect rating, MOOVA ([4]; Rate 0.0620 kg/ha) | herbicidal effect rating, MOOVA ([4]; Rate 0.1250 kg/ha) | herbicidal effect rating, MOOVA ([4]; Rate 0.2500 kg/ha) | herbicidal effect rating, SAGPY ([5]; Rate 0.0320 kg/ha) | herbicidal effect rating, SAGPY ([5]; Rate 0.0620 kg/ha) | herbicidal effect rating, SAGPY ([5]; Rate 0.1250 kg/ha) | herbicidal effect rating, SAGPY ([5]; Rate 0.2500 kg/ha) | also measured
CCCCS(=O)(=O)NC(=O)COc1ccccc1-c1nsc2ccc(-n3c(=O)cc(C(F)(F)F)n(C)c3=O)cc12 [Example 574, Acetamide, N-(butylsulfonyl)-2-{o-{5-[3,6-dihydro-3-methyl-2,6-dioxo-4-(trifluoromethyl)-1(2H)-pyrimidinyl]-1,2-benzisothiazol-3-yl}-phenoxy}-] | 4.0 | 6.5 | 8.5 | 9.0 | 2.0 | 5.5 | 6.0 | 7.0 | 0.0 | 2.0 | 4.5 | 6.5 | 9.0 | 9.0 | 9.0 | 9.0 | 0.0 | 1.0 | 2.0 | 6.0 | herbicidal effect rating ORYSAT ([6]; Rate 0.0320 kg/ha): 3.0; herbicidal effect rating ORYSAT ([6]; Rate 0.0620 kg/ha): 4.5; herbicidal effect rating ORYSAT ([6]; Rate 0.1250 kg/ha): 6.5; herbicidal effect rating ORYSAT ([6]; Rate 0.2500 kg/ha): 8.0
CCCCS(=O)(=O)NC(=O)C(C)Oc1ccc(C)cc1-c1nsc2ccc(-n3c(=O)cc(C(F)(F)F)n(C)c3=O)cc12 (stereo not drawn) [Example 575, Propionamide, N-(butylsulfonyl)-2-{{2-{5-[3,6-dihydro-3-methyl-2,6-dioxo-4-(trifluoromethyl)-1(2H)-pyrimidinyl]-1,2-benzisothiazol-3-yl}-p-tolyl}oxy}-] | 2.0 | 5.0 | 6.0 | 9.0 | 0.0 | 0.0 | 4.0 | 6.0 | 0.0 | 0.0 | 0.0 | 2.0 | 4.0 | 4.0 | 9.0 | 9.0 | 0.0 | 0.0 | 0.0 | 3.0 | herbicidal effect rating ORYSAT ([6]; Rate 0.0320 kg/ha): 0.0; herbicidal effect rating ORYSAT ([6]; Rate 0.0620 kg/ha): 0.0; herbicidal effect rating ORYSAT ([6]; Rate 0.1250 kg/ha): 0.0; herbicidal effect rating ORYSAT ([6]; Rate 0.2500 kg/ha): 2.0
Cc1ccc(OC(C)(C)C(=O)NS(C)(=O)=O)c(-c2nsc3ccc(-n4c(=O)cc(C(F)(F)F)n(C)c4=O)cc23)c1 [Example 576, Propionamide, 2-{{2-{5-[3,6-dihydro-3-methyl-2,6-dioxo-4-(trifluoromethyl)-1(2H)-pyrimidinyl]-1,2-benzisothiazol-3-yl}-p-tolyl}oxy}-2-methyl-N-(methylsulfonyl)-] | 6.0 | 7.0 | 7.0 | 9.0 | 0.0 | 3.0 | 3.0 | 5.0 | 0.0 | 0.0 | 0.0 | 4.0 | 7.0 | 9.0 | 9.0 | 9.0 | 0.0 | 0.0 | 3.0 | 4.0 | herbicidal effect rating ORYSAT ([6]; Rate 0.0320 kg/ha): 4.0; herbicidal effect rating ORYSAT ([6]; Rate 0.0620 kg/ha): 7.0; herbicidal effect rating ORYSAT ([6]; Rate 0.1250 kg/ha): 7.0; herbicidal effect rating ORYSAT ([6]; Rate 0.2500 kg/ha): 9.0
Cn1c(C(F)(F)F)cc(=O)n(-c2ccc3snc(C(=O)NCC(=O)O)c3c2)c1=O [Example 579, Glycine, N-{{5-[3,6-dihydro-3-methyl-2,6-dioxo-4-(trifluoromethyl)-1(2H)-pyrimidinyl]-1,2-benzisothiazol-3-yl}carbonyl}-] | 2.0 | 4.0 | 4.0 | 5.0 | 0.0 | 0.0 | 4.0 | 6.0 | 0.0 | 0.0 | 0.0 | 0.0 | 6.0 | 7.0 | 7.0 | 9.0 | 0.0 | 0.0 | 0.0 | 2.0 | herbicidal effect rating ORYSAT ([6]; Rate 0.0320 kg/ha): 0.0; herbicidal effect rating ORYSAT ([6]; Rate 0.0620 kg/ha): 2.0; herbicidal effect rating ORYSAT ([6]; Rate 0.1250 kg/ha): 3.0; herbicidal effect rating ORYSAT ([6]; Rate 0.2500 kg/ha): 3.0
